Assay results as given in ChEMBL document CHEMBL1926642, “Relevance of the C-5 position to schweinfurthin induced cytotoxicity” (2011).

How the values were obtained:
Format in all cases: functional
RXF 393 = assay: Growth inhibition of human RXF393 cells after 48 hrs by sulforhodamine B assay; conditions: RXF 393, 48 h; for TGI: read-out: pTGI (converted)
MCF7 = assay: Growth inhibition of human MCF7 cells after 48 hrs by sulforhodamine B assay; conditions: MCF7, 48 h
HOP-62 = assay: Growth inhibition of human HOP62 cells after 48 hrs by sulforhodamine B assay; conditions: HOP-62, 48 h; for TGI: read-out: pTGI (converted)
LOX IMVI = assay: Growth inhibition of human LOXIMVI cells after 48 hrs by sulforhodamine B assay; conditions: for TGI: read-out: pTGI (converted)
HT-29 = assay: Growth inhibition of human HT-29 cells after 48 hrs by sulforhodamine B assay; conditions: HT-29, 48 h; for TGI: read-out: pTGI (converted)
OVCAR-8 = assay: Growth inhibition of human OVCAR8 cells after 48 hrs by sulforhodamine B assay; conditions: OVCAR-8, 48 h; for TGI: read-out: pTGI (converted)
ACHN = assay: Growth inhibition of human ACHN cells after 48 hrs by sulforhodamine B assay; conditions: for TGI: read-out: pTGI (converted)
HCT-116 = assay: Growth inhibition of human HCT116 cells after 48 hrs by sulforhodamine B assay; conditions: HCT-116, 48 h; for TGI: read-out: pTGI (converted)
UACC-62 = assay: Growth inhibition of human UACC62 cells after 48 hrs by sulforhodamine B assay; conditions: UACC-62, 48 h; for TGI: read-out: pTGI (converted)
U-251 = assay: Growth inhibition of human U251 cells after 48 hrs by sulforhodamine B assay; conditions: U-251, 48 h; for TGI: read-out: pTGI (converted)
MOLT-4 = assay: Growth inhibition of human MOLT4 cells after 48 hrs by sulforhodamine B assay; conditions: MOLT-4, 48 h; for TGI: read-out: pTGI (converted)
Malme-3M = assay: Growth inhibition of human MALME-3M cells after 48 hrs by sulforhodamine B assay; conditions: for TGI: read-out: pTGI (converted)
HCC 2998 = assay: Growth inhibition of human HCC2998 cells after 48 hrs by sulforhodamine B assay; conditions: HCC 2998, 48 h; for TGI: read-out: pTGI (converted)
A549 = assay: Ratio of GI50 for human A549 cells to GI50 for human SF295 cells after 48 hrs by sulforhodamine B assay
SF-295 = assay: Growth inhibition of human SF295 cells after 48 hrs by sulforhodamine B assay; conditions: SF-295, 48 h; for TGI: read-out: pTGI (converted)
SNB-19 = assay: Growth inhibition of human SNB19 cells after 48 hrs by sulforhodamine B assay; conditions: SNB-19, 48 h; for TGI: read-out: pTGI (converted)
CCRF-CEM = assay: Growth inhibition of human CCRF-CEM cells after 48 hrs by sulforhodamine B assay; conditions: for TGI: read-out: pTGI (converted)
COLO 205 = assay: Growth inhibition of human COLO205 cells after 48 hrs by sulforhodamine B assay; conditions: COLO 205, 48 h; for TGI: read-out: pTGI (converted)
SR = assay: Growth inhibition of human SR cells after 48 hrs by sulforhodamine B assay
IGROV-1 = assay: Growth inhibition of human IGROV1 cells after 48 hrs by sulforhodamine B assay; conditions: IGROV-1, 48 h; for TGI: read-out: pTGI (converted)
SF-268 = assay: Growth inhibition of human SF268 cells after 48 hrs by sulforhodamine B assay; conditions: SF-268, 48 h; for TGI: read-out: pTGI (converted)
EKVX = assay: Growth inhibition of human EKVX cells after 48 hrs by sulforhodamine B assay; conditions: for TGI: read-out: pTGI (converted)
NCI-H522 = assay: Growth inhibition of human NCI-H522 cells after 48 hrs by sulforhodamine B assay; conditions: NCI-H522, 48 h; for TGI: read-out: pTGI (converted)
DU-145 = assay: Growth inhibition of human DU145 cells after 48 hrs by sulforhodamine B assay; conditions: DU-145, 48 h; for TGI: read-out: pTGI (converted)
UO-31 = assay: Growth inhibition of human UO31 cells after 48 hrs by sulforhodamine B assay; conditions: UO-31, 48 h; for TGI: read-out: pTGI (converted)
HOP-92 = assay: Growth inhibition of human HOP92 cells after 48 hrs by sulforhodamine B assay; conditions: HOP-92, 48 h
MDA-MB-468 = assay: Growth inhibition of human MDA-MB-468 cells after 48 hrs by sulforhodamine B assay; conditions: MDA-MB-468, 48 h
NCI/ADR-RES = assay: Growth inhibition of human NCI/ADR-RES cells after 48 hrs by sulforhodamine B assay
M14 = assay: Growth inhibition of human M14 cells after 48 hrs by sulforhodamine B assay; conditions: M14, 48 h

## COc1cc(/C=C/c2cc3c(c(OC)c2)O[C@]2(C)CC[C@@H](O)C(C)(C)[C@H]2C3)cc(O)c1C/C=C(\C)CCC=C(C)C
RXF 393
  GI50: 0.0891 µM
  LC50 (50% lethal concentration): 4.17 µM
  TGI: 0.302 µM
MCF7
  GI50: 1.02 µM
  LC50: 17.4 µM
MCF7; read-out: pTGI (converted)
  TGI: 5.89 µM
HOP-62
  GI50: 0.832 µM
  LC50: 11 µM
  TGI: 2.82 µM
LOX IMVI
  GI50: 1.41 µM
  LC50: 15.8 µM
  TGI: 5.01 µM
HT-29
  GI50: 0.398 µM
  LC50 (concentration killing 50% of cells): 13.2 µM
  TGI: 2.63 µM
OVCAR-8
  GI50: 5.5 µM
  LC50: 30.9 µM
  TGI: 13.2 µM
ACHN
  GI50: 2.75 µM
  LC50: 21.4 µM
  TGI: 9.33 µM
HCT-116
  GI50: 3.24 µM
  LC50: 21.9 µM
  TGI: 9.77 µM
UACC-62
  GI50: 1.07 µM
  LC50 (50% lethal concentration): 13.8 µM
  TGI: 3.8 µM
U-251
  GI50: 0.417 µM
  LC50: 19.5 µM
  TGI: 7.76 µM
MOLT-4
  GI50: 0.891 µM
  LC50: 33.1 µM
  TGI: 2.75 µM
Malme-3M
  GI50: 5.13 µM
  LC50: 36.3 µM
  TGI: 13.5 µM
HCC 2998
  GI50: 1.7 µM
  LC50: 22.4 µM
  TGI: 10 µM
A549
  RatioGI50: 13
SF-295
  LC50: 3.89 µM
  TGI: 0.871 µM
SF-295; read-out: GI50
  GI50: 0.19 µM
SF-295; read-out: pGI50 (converted)
  GI50: 0.186 µM
SNB-19
  GI50: 3.89 µM
  LC50: 41.7 µM
  TGI: 14.1 µM
CCRF-CEM
  GI50: 1.41 µM
  LC50: > 50.1 µM
  TGI: 13.8 µM
COLO 205
  GI50: 0.562 µM
  LC50: 2.4 µM
  TGI: 1.17 µM
SR
  GI50: 1.02 µM
  LC50: 22.4 µM
SR; read-out: pTGI (converted)
  TGI: 3.16 µM
IGROV-1
  GI50: 5.75 µM
  LC50: 30.9 µM
  TGI: 13.5 µM
SF-268
  GI50: 2.45 µM
  LC50: 21.4 µM
  TGI: 9.33 µM
EKVX
  GI50: 2.09 µM
  LC50 (50% lethal concentration): 32.4 µM
  TGI: 10.7 µM
NCI-H522
  GI50: 4.47 µM
  LC50: 32.4 µM
  TGI: 12.3 µM
DU-145
  GI50: 3.8 µM
  LC50: 22.9 µM
  TGI: 10.2 µM
UO-31
  GI50: 1.12 µM
  LC50: 21.9 µM
  TGI: 7.59 µM

## COCOc1cc(/C=C/c2cc(CO)c3c(c2)C[C@@H]2C(C)(C)[C@H](O)CC[C@@]2(C)O3)cc(OC)c1C/C=C(\C)CCC=C(C)C
RXF 393
  GI50: 0.0661 µM
  LC50 (50% lethal concentration): 2.69 µM
  TGI: 0.355 µM
HOP-62
  GI50: 0.537 µM
  LC50: 64.6 µM
  TGI: 11 µM
LOX IMVI
  GI50: 0.55 µM
  LC50: 18.2 µM
  TGI: 3.02 µM
HOP-92
  GI50: 2.57 µM
  LC50: 45.7 µM
HOP-92; read-out: pTGI (converted)
  TGI: 16.6 µM
HT-29
  GI50: 2.04 µM
  LC50 (concentration killing 50% of cells): > 100 µM
  TGI: 19.1 µM
OVCAR-8
  GI50: 11 µM
  LC50: 77.6 µM
  TGI: 29.5 µM
ACHN
  GI50: 2.24 µM
  LC50: > 100 µM
  TGI: 50.1 µM
HCT-116
  GI50: 3.47 µM
  LC50: 45.7 µM
  TGI: 18.2 µM
UACC-62
  GI50: 0.55 µM
  LC50 (50% lethal concentration): 57.5 µM
  TGI: 10.7 µM
MDA-MB-468
  GI50: 1.78 µM
  LC50: 49 µM
MDA-MB-468; read-out: pTGI (converted)
  TGI: 12.3 µM
U-251
  GI50: 0.275 µM
  LC50: 53.7 µM
  TGI: 15.5 µM
MOLT-4
  GI50: 0.398 µM
  LC50: > 100 µM
  TGI: > 100 µM
Malme-3M
  GI50: 11.7 µM
  LC50: > 100 µM
  TGI: 67.6 µM
HCC 2998
  GI50: 10.7 µM
  LC50: 70.8 µM
  TGI: 27.5 µM
SF-295
  LC50: 33.9 µM
  TGI: 0.501 µM
SF-295; read-out: GI50
  GI50: 0.15 µM
SF-295; read-out: pGI50 (converted)
  GI50: 0.151 µM
SNB-19
  GI50: 11.2 µM
  LC50: 77.6 µM
  TGI: 29.5 µM
CCRF-CEM
  GI50: 1.02 µM
  LC50: > 100 µM
  TGI: > 100 µM
NCI/ADR-RES
  GI50: 8.13 µM
  LC50: 95.5 µM
NCI/ADR-RES; read-out: pTGI (converted)
  TGI: 29.5 µM
COLO 205
  GI50: 3.55 µM
  LC50: 66.1 µM
  TGI: 14.1 µM
IGROV-1
  GI50: 15.8 µM
  LC50: > 100 µM
  TGI: > 100 µM
SF-268
  GI50: 4.07 µM
  LC50: 55 µM
  TGI: 20.9 µM
EKVX
  GI50: 4.47 µM
  LC50 (50% lethal concentration): > 100 µM
  TGI: 83.2 µM
M14
  GI50: 0.692 µM
  LC50: > 100 µM
M14; read-out: pTGI (converted)
  TGI: 21.9 µM
NCI-H522
  GI50: 10.5 µM
  LC50: 77.6 µM
  TGI: 28.2 µM
DU-145
  GI50: 3.8 µM
  LC50: 52.5 µM
  TGI: 20 µM
UO-31
  GI50: 0.501 µM
  LC50: 93.3 µM
  TGI: 15.1 µM
